Consider 11 molecules from ChEMBL document CHEMBL1143789, “Synthesis and biological study of medicinally important Mannich bases derived from 4-(dimethylamino)-1,4,4a,5,5a,6,11,12a-octahydro-3,6,10,12,12a pentahydroxy naphthacene carboxamide” (Bioorg Med Chem Lett, 2007).

The test system of data set [1] is Salmonella enteritidis. In words: Antibacterial activity against Salmonella enteritidis at 20 mg/ml by paper disc method. In kind it is functional, Salmonella enterica subsp. enterica serovar Enteritidis. Conditions: Salmonella enterica; read-out: IZ.
Data set [2] relates to Salmonella enteritidis. As to the kind of experiment: Antibacterial activity against Salmonella enteritidis at 30 mg/ml by paper disc method. The note with it: Salmonella enterica; read-out: IZ. In kind it is functional, Salmonella enterica subsp. enterica serovar Enteritidis.
The subject of data set [3] is Salmonella enteritidis. As to the kind of experiment: Antibacterial activity against Salmonella enteritidis at 40 mg/ml by paper disc method. The data set is classed as functional, Salmonella enterica subsp. enterica serovar Enteritidis. Conditions: Salmonella enterica; read-out: IZ.
Data set [4] has as its system Pasteurella multocida. As to the kind of experiment: Antibacterial activity against Pasteurella multocida at 20 mg/ml by paper disc method. In kind it is functional. The note with it: read-out: IZ.
In data set [5] the test system is Pasteurella multocida. As to the kind of experiment: Antibacterial activity against Pasteurella multocida at 30 mg/ml by paper disc method. In kind it is functional. Conditions: read-out: IZ.
Data set [6] relates to Pasteurella multocida. In words: Antibacterial activity against Pasteurella multocida at40 mg/ml by paper disc method. In kind it is functional.
Data set [7] concerns Mus musculus. In words: Toxicity in mouse at 1600 mg/kg, po after 72 hrs. In kind it is organism-based. On the set-up: dose 1600 mg/kg, route oral. Conditions: in vivo.
For data set [8], the system named is Mus musculus. As to the kind of experiment: Toxicity in mouse at 1000 mg/kg, ip after 72 hrs. The note with it: in vivo. In kind it is organism-based. On the set-up: dose 1000 mg/kg, route intraperitoneal.

With `CN(C)C1C(O)=C(C(=O)NCNc2ccc(S(=O)(=O)Nc3ncccn3)cc2)C(=O)C2(O)C(O)=C3C(=O)c4c(O)cccc4C(C)(O)C3CC12` (configuration not stated), the zone of inhibition at 20000 µg/mL in the data set on Salmonella enteritidis [1] amounted to 20 mm; with Pasteurella multocida [4], 20.4 mm. Further, the figures for the zone of inhibition at 30000 µg/mL with Salmonella enteritidis [2] and with Pasteurella multocida [5] were 20.9 mm and 20.8 mm, respectively. In the data set with Salmonella enteritidis [3], the zone of inhibition at 40000 µg/mL stood at 21.2 mm. In addition, the “inhibition zone (IZ)” value in the data set with Pasteurella multocida [6] is listed as 21.86 mm. Besides, the values for the Activity result with Mus musculus [7] and with Mus musculus [8] were “Non-toxic” and “Toxic”, respectively.

As to `CN(C)C1C(O)=C(C(=O)NCNc2ccc(S(N)(=O)=O)cc2)C(=O)C2(O)C(O)=C3C(=O)c4c(O)cccc4C(C)(O)C3CC12` (configuration not stated), the zone of inhibition at 20000 µg/mL in the data set with Salmonella enteritidis [1] was 14.7 mm; with Pasteurella multocida [4], 28.4 mm. For the same molecule, the zone of inhibition at 30000 µg/mL with Salmonella enteritidis [2] amounted to 15 mm; in the data set with Pasteurella multocida [5] it was 28.6 mm. For the same molecule, in the data set on Salmonella enteritidis [3], the zone of inhibition at 40000 µg/mL was determined as 16 mm. Moreover, in the data set with Pasteurella multocida [6], the “inhibition zone (IZ)” value amounted to 29.08 mm. The Activity entry with Mus musculus [7] was “Non-toxic”; with Mus musculus [8], “Toxic”.

Turning to `COc1ncnc(NS(=O)(=O)c2ccc(NCNC(=O)C3=C(O)C(N(C)C)C4CC5C(=C(O)C4(O)C3=O)C(=O)c3c(O)cccc3C5(C)O)cc2)c1OC` (configuration not stated), the figures for the zone of inhibition at 20000 µg/mL in the data set with Salmonella enteritidis [1] and in the data set on Pasteurella multocida [4] were 15 mm and 22.1 mm, respectively. Besides, the zone of inhibition at 30000 µg/mL was determined as 15.2 mm in the data set on Salmonella enteritidis [2] and 23.3 mm with Pasteurella multocida [5]. For the same molecule, the zone of inhibition at 40000 µg/mL in the data set on Salmonella enteritidis [3] came to 15.5 mm. Further, the “inhibition zone (IZ)” value in the data set with Pasteurella multocida [6] was found to be 24.4 mm. For the same molecule, the Activity entry is given as “Non-toxic” in the data set on Mus musculus [7] and “Toxic” in the data set on Mus musculus [8].

With `CC(=O)NS(=O)(=O)c1ccc(NCNC(=O)C2=C(O)C(N(C)C)C3CC4C(=C(O)C3(O)C2=O)C(=O)c2c(O)cccc2C4(C)O)cc1` (configuration not stated), the zone of inhibition at 20000 µg/mL in the data set with Pasteurella multocida [4] was found to be 26.2 mm. Besides, in the data set with Pasteurella multocida [5], the zone of inhibition at 30000 µg/mL came out at 27.3 mm. Besides, in the data set with Pasteurella multocida [6], the “inhibition zone (IZ)” value was determined as 28.3 mm. Further, the Activity result is reported as “Non-toxic” with Mus musculus [7] and “Toxic” with Mus musculus [8].

With `Cc1cc(NS(=O)(=O)c2ccc(NCNC(=O)C3=C(O)C(N(C)C)C4CC5C(=C(O)C4(O)C3=O)C(=O)c3c(O)cccc3C5(C)O)cc2)no1` (configuration not stated), the zone of inhibition at 20000 µg/mL with Salmonella enteritidis [1] is 21.1 mm; in the data set with Pasteurella multocida [4], 21.3 mm. Also, the zone of inhibition at 30000 µg/mL worked out at 21.2 mm in the data set on Salmonella enteritidis [2] and 22 mm in the data set with Pasteurella multocida [5]. Also, in the data set on Salmonella enteritidis [3], the zone of inhibition at 40000 µg/mL was 22.1 mm. In the data set on Pasteurella multocida [6], the “inhibition zone (IZ)” value is listed as 23.2 mm. In addition, the Activity result with Mus musculus [7] is on record as “Non-toxic”; in the data set with Mus musculus [8] it was “Toxic”.

Turning to `CN(C)C1C(O)=C(C(=O)NCNc2ccc(S(=O)(=O)NC(=N)N)cc2)C(=O)C2(O)C(O)=C3C(=O)c4c(O)cccc4C(C)(O)C3CC12` (configuration not stated), the zone of inhibition at 20000 µg/mL was found to be 13.2 mm in the data set with Salmonella enteritidis [1] and 24.1 mm in the data set on Pasteurella multocida [4]. Also, the zone of inhibition at 30000 µg/mL in the data set on Salmonella enteritidis [2] was 13.9 mm; in the data set with Pasteurella multocida [5], 24.3 mm. For the same molecule, the zone of inhibition at 40000 µg/mL with Salmonella enteritidis [3] amounted to 14.2 mm. Besides, the “inhibition zone (IZ)” value with Pasteurella multocida [6] is 25.2 mm. For the same molecule, the Activity result was “Non-toxic” with Mus musculus [7] and “Toxic” in the data set with Mus musculus [8].

With `CC(=O)NS(=O)(=O)c1ccc(N)cc1` [SULFACETAMIDE], the zone of inhibition at 20000 µg/mL in the data set with Pasteurella multocida [4] stood at 20.5 mm. In the data set with Pasteurella multocida [5], the zone of inhibition at 30000 µg/mL stood at 21.2 mm. In addition, the “inhibition zone (IZ)” value with Pasteurella multocida [6] is on record as 22.15 mm.

With `Nc1ccc(S(=O)(=O)Nc2ncccn2)cc1` [SULFADIAZINE], the zone of inhibition at 20000 µg/mL in the data set with Salmonella enteritidis [1] came out at 10 mm; in the data set with Pasteurella multocida [4], 28 mm. Besides, the zone of inhibition at 30000 µg/mL in the data set on Salmonella enteritidis [2] is 15 mm; in the data set with Pasteurella multocida [5] it was 30 mm. Moreover, the zone of inhibition at 40000 µg/mL with Salmonella enteritidis [3] was determined as 20 mm. For the same molecule, in the data set on Pasteurella multocida [6], the “inhibition zone (IZ)” value was 39 mm.

With `N=C(N)NS(=O)(=O)c1ccc(N)cc1` [SULFAGUANIDINE], the zone of inhibition at 20000 µg/mL in the data set with Salmonella enteritidis [1] is 10 mm; in the data set with Pasteurella multocida [4], 20 mm. The values for the zone of inhibition at 30000 µg/mL in the data set on Salmonella enteritidis [2] and in the data set with Pasteurella multocida [5] were 15 mm and 25 mm, respectively. Besides, the zone of inhibition at 40000 µg/mL in the data set with Salmonella enteritidis [3] turned out to be 18 mm. Also, the “inhibition zone (IZ)” value in the data set with Pasteurella multocida [6] was 25 mm.

Regarding `Cc1cc(NS(=O)(=O)c2ccc(N)cc2)no1` [SULFAMETHOXAZOLE], the zone of inhibition at 20000 µg/mL in the data set with Salmonella enteritidis [1] was determined as 15 mm; in the data set with Pasteurella multocida [4], 24 mm. Also, the zone of inhibition at 30000 µg/mL in the data set with Salmonella enteritidis [2] was 15 mm; in the data set on Pasteurella multocida [5], 26 mm. For the same molecule, the zone of inhibition at 40000 µg/mL in the data set with Salmonella enteritidis [3] was found to be 18 mm. Further, the “inhibition zone (IZ)” value in the data set with Pasteurella multocida [6] was found to be 28 mm.

With `Nc1ccc(S(N)(=O)=O)cc1` [SULFANILAMIDE], the zone of inhibition at 20000 µg/mL stood at 10 mm with Salmonella enteritidis [1] and 22 mm with Pasteurella multocida [4]. In addition, the zone of inhibition at 30000 µg/mL with Salmonella enteritidis [2] was found to be 12 mm; in the data set with Pasteurella multocida [5], 25 mm. In addition, the zone of inhibition at 40000 µg/mL with Salmonella enteritidis [3] is 16 mm. Further, the “inhibition zone (IZ)” value in the data set with Pasteurella multocida [6] came out at 28 mm.
